Measured values taken from patent publication US8242151B2, “Tricyclic compounds” (Kyowa Hakko Kirin Co., Ltd., priority 2007, dated 2012).

Legend:
[1] = molecular target: T1, GAL4-PPARγ chimeric nuclear receptor (human PPARγ ligand binding region) (Homo sapiens, UniProt P37231); assay: Transactivation assay of PPARγ by transient gene transfer (GAL4-PPARγ luciferase reporter); format: cell-based; conditions: HEK293EBNA cells, 24 hr; concentration showing 50% of efficacy; activity relative to pioglitazone 10 μmol/L = 100%
T1 construct: expressed in transfected cells; host or cells: HEK293EBNA cells
T1 sequence (P37231 174-475 isoform P37231-2): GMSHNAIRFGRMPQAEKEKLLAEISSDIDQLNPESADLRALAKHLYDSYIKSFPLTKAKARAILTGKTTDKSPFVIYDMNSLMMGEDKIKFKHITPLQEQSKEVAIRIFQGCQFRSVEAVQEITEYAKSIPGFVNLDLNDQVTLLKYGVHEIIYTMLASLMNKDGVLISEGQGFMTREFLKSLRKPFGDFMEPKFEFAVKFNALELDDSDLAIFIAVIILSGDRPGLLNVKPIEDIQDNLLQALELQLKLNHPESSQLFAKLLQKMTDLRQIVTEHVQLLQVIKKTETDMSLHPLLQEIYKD
Experimental: The agonist activity of compound (I) to PPARγ was determined by a transactivation assay method using a chimeric nuclear receptor of a DNA binding region of a yeast transcription factor GAL4 and a PPARγ ligand binding region. Specifically, the PPARγ agonist activity of compound (I) was evaluated by the following method based on the method of Lehmann et al. (J Biol. Chem., 1995, vol. 270, page 12953).
HEK293EBNA cells cultured in Dulbecco's Modified Eagle medium (Invitrogen) containing 10 v/v % fetal calf serum (Invitrogen) were used. 30 mL of the above-mentioned cells (density: 1×10^5 cells/mL) were inoculated in a […] culture dish (Iwaki Glass), and cultured overnight. Using SuperFect Transfection Reagent (QIAGEN), a plasmid expressing a GAL4-PPARγ chimeric nuclear receptor fusing 174-475 amino acids, which are human PPARγ ligand binding region, and 1-147 amino acids, which are GAL4 DNA binding region, and a reporter plasmid expressing a GAL4 responsive luciferase were transiently introduced into the cells at a proportion of 4:1. After 5 hr from gene introduction, the cells were detached from the culture dish, and the detached cells (density: 2×10^4 cells/mL) were inoculated by 100 μL in each well of a 96 well white plate (SUMITOMO BAKELITE), and cultured overnight. The medium was removed, compound (I) diluted in various concentrations with serum-free Dulbecco's Modified Eagle medium was added by 100 μL, and the mixture was reacted under a 5% carbon dioxide gas stream (5% CO2) at 37° C. for 24 hr. On the other hand, as a positive control, 10 μmol/L of pioglitazone (100 μL) was added, and the mixture was reacted under a 5% carbon dioxide gas stream (5% CO2) at 37° C. for 24 hr. As a substrate of luciferase, 100 μL of Steady-Glo (Promega) was added to each well and the mixture was thoroughly stirred. Immediately thereafter, the chemical luminescence due to luciferase was measured using TopCount NTX (Packard).
The agonist activity (activity rate (%)) of compound (I) to PPARγ was calculated according to the following formula, as a relative activity when the agonist activity on addition of pioglitazone (10 μmol/L) was 100%.

[2] = system: spontaneously hypertensive rats (SHR); assay: Antihypertensive action by telemetry method; format: in vivo, rat; conditions: oral once a day for 4 days, 24 hr averages
Description: A telemetry transmitter was indwelled in the abdominal artery of spontaneously hypertensive rats (SHR), and the blood pressure and heart rate were monitored. The rats were acclimated and reared for 4 weeks or more, and only the rats with hypertension were used for the test. Before drug administration, the rats were grouped such that the blood pressure and heart rate of each rat would be of the same levels between the groups. A solvent (0.5% methylcellulose solution) and a test compound were repeatedly administered orally once a day for 4 days. The average systolic blood pressure for 24 hr, average diastolic blood pressure for 24 hr and average heart rate for 24 hr were calculated on each administration day.

Row | EC50 [1] | Compound | antihypertensive action (blood pressure, telemetry) [2]
1 | 94 nM | CCCc1nc2c(C)cccc2n1Cc1ccc2c(c1)CCc1ccccc1/C2=C/c1noc(=O)[nH]1 [Compound 51, (Z)-2-(4-methyl-2-propylbenzimidazol-1-yl)methyl-5-(5-oxo-4,5-dihydro-1,2,4-oxadiazol-3-yl)methylene-10,11-dihydro-5H-dibenzo[a,d]cycloheptene] | 
2 | 342 nM | CCCc1nc2c(C)cccc2n1Cc1ccc2c(c1)CCc1ccccc1/C2=C(/C)c1noc(=O)[nH]1 [Compound 83, (E)-2-(4-methyl-2-propylbenzimidazol-1-yl)methyl-5-[1-(5-oxo-4,5-dihydro-1,2,4-oxadiazol-3-yl)ethylidene]-10,11-dihydro-5H-dibenzo[a,d]cycloheptene] | 
3 | 73 nM | CCCc1nc2c(C)cccc2n1Cc1ccc2c(c1)CCc1ccccc1C2Cc1noc(=O)[nH]1 (stereo not drawn) [Compound 64, 2-(4-methyl-2-propylbenzimidazol-1-yl)methyl-5-(5-oxo-4,5-dihydro-1,2,4-oxadiazol-3-yl)methyl-10,11-dihydro-5H-dibenzo[a,d]cycloheptene] | 
4 | 1130 nM | C/C(=C1/c2ccccc2COc2cc(Cn3c(C4CC4)nc4c(C)cc(C)nc43)ccc21)c1noc(=O)[nH]1 [Compound 112, (E)-3-(2-cyclopropyl-5,7-dimethyl-3H-imidazo[4,5-b]pyridin-3-yl)methyl-11-[1-(5-oxo-4,5-dihydro-1,2,4-oxadiazol-3-yl)ethylidene]-6,11-dihydrodibenzo[b,e]oxepine] | 
5 | 103 nM | CCCc1nc2c(C)cccc2n1Cc1ccc2c(c1)CCc1ccccc1/C2=C\c1noc(=O)[nH]1 [Compound 33, (E)-2-(4-methyl-2-propylbenzimidazol-1-yl)methyl-5-(5-oxo-4,5-dihydro-1,2,4-oxadiazol-3-yl)methylene-10,11-dihydro-5H-dibenzo[a,d]cycloheptene] | 
6 | 1250 nM | CCc1nc2c(C)cc(C)nc2n1Cc1ccc2c(c1)CCc1ccccc1C2=CC#N [Compound S15, [2-(2-ethyl-5,7-dimethyl-3H-imidazo[4,5-b]pyridin-3-yl)methyl-10,11-dihydro-5H-dibenzo[a,d]cyclohepten-5-ylidene]acetonitrile] | antihypertensive action
7 | 325 nM | CCCc1nc(CC)c(C(=O)OCC)n1Cc1ccc2c(c1)CCc1ccccc1N2C(C)c1nnn[nH]1 (stereo not drawn) [Compound 28, 2-(5-ethoxycarbonyl-4-ethyl-2-propyl-1H-imidazol-1-yl)methyl-5-[1-(1H-tetrazol-5-yl)ethyl]-10,11-dihydro-5H-dibenzo[b,f]azepine] | 
8 | 235 nM | Cc1cc(C)c2nc(C3CC3)n(Cc3ccc4c(c3)CCc3ccccc3N4C(C)c3nnn[nH]3)c2n1 (stereo not drawn) [Compound 71, 2-(2-cyclopropyl-5,7-dimethyl-3H-imidazo[4,5-b]pyridin-3-yl)methyl-5-[1-(1H-tetrazol-5-yl)ethyl]-10,11-dihydro-5H-dibenzo[b,f]azepine] | antihypertensive action
9 | 320 nM | CCOc1nc2c(C)cc(C)nc2n1Cc1ccc2c(c1)COc1ccccc1/C2=C\c1noc(=O)[nH]1 [Compound 124, (Z)-8-(2-ethoxy-5,7-dimethyl-3H-imidazo[4,5-b]pyridin-3-yl)methyl-11-(5-oxo-4,5-dihydro-1,2,4-oxadiazol-3-yl)methylene-6,11-dihydrodibenzo[b,e]oxepine] | antihypertensive action
10 | 233 nM | CCc1nc2c(Cl)cc(C)nc2n1Cc1ccc2c(c1)CCc1ccccc1N2C(C)c1nnn[nH]1 (stereo not drawn) [Compound 25, 2-(7-chloro-2-ethyl-5-methyl-3H-imidazo[4,5-b]pyridin-3-yl)methyl-5-[1-(1H-tetrazol-5-yl)ethyl]-10,11-dihydro-5H-dibenzo[b,f]azepine] | antihypertensive action
11 | 310 nM | CCc1nc2c(Cl)cc(C)nc2n1Cc1ccc2c(c1)OCc1ccccc1/C2=C\c1noc(=O)[nH]1 [Compound 106, (E)-3-(7-chloro-2-ethyl-5-methyl-3H-imidazo[4,5-b]pyridin-3-yl)methyl-11-(5-oxo-4,5-dihydro-1,2,4-oxadiazol-3-yl)methylene-6,11-dihydrodibenzo[b,e]oxepine] | 
12 | 440 nM | CCCc1nc2c(C(F)(F)F)cc(C)nc2n1Cc1ccc2c(c1)CCc1ccccc1/C2=C/c1noc(=O)[nH]1 [Compound 57, (Z)-2-(5-methyl-2-propyl-7-trifluoromethyl-3H-imidazo[4,5-b]pyridin-3-yl)methyl-5-(5-oxo-4,5-dihydro-1,2,4-oxadiazol-3-yl)methylene-10,11-dihydro-5H-dibenzo[a,d]cycloheptene] | 
13 | 4130 nM | Cc1cc(C)c2nc(C3CC3)n(Cc3ccc4c(c3)CCc3ccccc3N4Cc3nnn[nH]3)c2n1 [Compound S14, 2-(2-cyclopropyl-5,7-dimethyl-3H-imidazo[4,5-b]pyridin-3-yl)methyl-5-(1H-tetrazol-5-yl)methyl-10,11-dihydro-5H-dibenzo[b,f]azepine] | 
14 | 48 nM | CCCc1nc2c(C)cccc2n1Cc1ccc2c(c1)CCc1ccccc1N2C(C)c1noc(=O)[nH]1 (stereo not drawn) [Compound 18, 2-(4-methyl-2-propylbenzimidazol-1-yl)methyl-5-[1-(5-oxo-4,5-dihydro-1,2,4-oxadiazol-3-yl)ethyl]-10,11-dihydro-5H-dibenzo[b,f]azepine] | 
15 | 251 nM | CCc1nc2c(C)cc(C)nc2n1Cc1ccc2c(c1)CCc1ccccc1/C2=C(\C)c1nn[nH]n1 [Compound 62, (Z)-2-(2-ethyl-5,7-dimethyl-3H-imidazo[4,5-b]pyridin-3-yl)methyl-5-[1-(1H-tetrazol-5-yl)ethylidene]-10,11-dihydro-5H-dibenzo[a,d]cycloheptene] | 
16 | 1290 nM | CCc1nc2c(C)cc(C)nc2n1Cc1ccc2c(c1)CCc1ccccc1/C2=C/c1nnn[nH]1 [Compound S17, (Z)-2-(2-ethyl-5,7-dimethyl-3H-imidazo[4,5-b]pyridin-3-yl)methyl-5-(1H-tetrazol-5-yl)methylene-10,11-dihydro-5H-dibenzo[a,d]cycloheptene] | 
17 | 97 nM | CCCc1nc2c(C)cccc2n1Cc1ccc2c(c1)CCc1ccccc1N2Cc1noc(=O)[nH]1 [Compound 6, 2-(4-methyl-2-propylbenzimidazol-1-yl)methyl-5-(5-oxo-4,5-dihydro-1,2,4-oxadiazol-3-yl)methyl-10,11-dihydro-5H-dibenzo[b,f]azepine] | 
18 | 53 nM | Cc1cc(C)c2nc(C3CC3)n(Cc3ccc4c(c3)CCc3ccccc3N4C(C)c3noc(=O)[nH]3)c2n1 (stereo not drawn) [Compound 70, 2-(2-cyclopropyl-5,7-dimethyl-3H-imidazo[4,5-b]pyridin-3-yl)methyl-5-[1-(5-oxo-4,5-dihydro-1,2,4-oxadiazol-3-yl)ethyl]-10,11-dihydro-5H-dibenzo[b,f]azepine] | 
19 | 415 nM | CCc1nc2c(C(F)(F)F)cc(C)nc2n1Cc1ccc2c(c1)CCc1ccccc1/C2=C\c1noc(=O)[nH]1 [Compound 37, (E)-2-(2-ethyl-5-methyl-7-trifluoromethyl-3H-imidazo[4,5-b]pyridin-3-yl)methyl-5-(5-oxo-4,5-dihydro-1,2,4-oxadiazol-3-yl)methylene-10,11-dihydro-5H-dibenzo[a,d]cycloheptene] | 
20 | 1520 nM | CCOc1nc2cccnc2n1Cc1ccc2c(c1)CCc1ccccc1/C2=C(/C)c1noc(=O)[nH]1 [Compound 91, (E)-2-(2-ethoxy-3H-imidazo[4,5-b]pyridin-3-yl)methyl-5-[1-(5-oxo-4,5-dihydro-1,2,4-oxadiazol-3-yl)ethylidene]-10,11-dihydro-5H-dibenzo[a,d]cycloheptene] | 
